Source: patent US20210361774A1, “DEGRADERS OF WILD-TYPE AND MUTANT FORMS OF LRRK2” (DANA-FARBER CANCER INSTITUTE, INC., priority 2018, published 2021)

How the values were obtained:
[1] = system: LRRK2 pS935; assay: Inhibition of phosphorylation of S935, Western blot in MEFs; format: cell-based, Mouse; details: for inhibition of phosphorylation of S935: Western blot, time course, 0 nM-1000 nM
Procedure: (§1) Cell lines used: Mouse embryonic fibroblast (MEF) WT, LRRK2 homozygous knock-ins in MEFs [R1441C; VPS35N(D620N); G2019S].
(§2) Tested concentration of LRRK2 degraders: 0 nM, 10 nM, 30 nM, 100 nM, 300 nM, 1000 nM. Additional concentrations tested for inventive compound 3: 2 uM, 5 uM and 10 uM.
(§3) Complete growth medium: DMEM supplemented with: 10% Fetal Bovine Serum; 1% pen/strep; 1% L-Glutamine; 1% MEM Non-essential Amino Acid Solution; 1% sodium pyruvate.
(§4) Commercial and in-house purified antibodies: • (a) Mouse anti-LRRK2/Dardarin antibody from Antibodies, Inc. (Cat #75-253). • (b) Rabbit monoclonal antibodies for total LRRK2 (UDD3) and pS935-LRRK2 (UDD2) were purified at the University of Dundee (as described in Dzamko et al., PLoS One 7(6): e39132 (2012). • (c) Loading controls: anti-α-tubulin (Cell Signaling Technology #5174); anti-GAPDH (Santa Cruz Biotechnology Cat. #sc-32233) • (d) (p)Rab10 antibodies: rabbit anti-RAB10 (phospho T73) antibody [MJF-R21] (ab230261); mouse MJFF-total Rab10 monoclonal antibody were generated by nanoTools (www.nanotools.de); rabbit Rab10 total was from Cell Signaling Technology (Rab10 (D36C4) XP® Rabbit mAb #8127)
(§5) Treatment: WT MEF, R1441C, VPS35N and G2019S mutants' cells were plated at equal density into 6-well plates in a final volume of 3 mL of complete growth medium/well. Degraders were reconstituted in DMSO and used at 1:1000 in cells i.e. 3 μl/3 ml. Treatment began when cells were >60% confluent, starting from a 48-hour time point, followed by a 24-hour time point, a 6-hour time point and finally a 1-hour time point.
(§6) Cell lysis: Media were aspirated, plates were placed on ice and cells were washed with Dulbecco's phosphate-buffered saline (DPBS). Fifty microliters of an ice-cold lysis buffer containing 50 mM Tris-HCl, pH 7.5, 1% (v/v) Triton X-100, 1 mM ethylene glycol-bis(μ-aminoethyl ether)-N,N,N′,N′-tetraacetic acid (EGTA), 1 mM sodium orthovanadate, 50 mM NaF, 0.1% (v/v) 2-mercaptoethanol, 10 mM 2-glycerophosphate, 5 mM sodium pyrophosphate, 0.1 μg/ml microcystin-LR (Enzo Life Sciences), 270 mM sucrose and complete EDTA-free protease inhibitor cocktail (Sigma-Aldrich Cat #11836170001) was added per well. Lysates were centrifuged at 20,817 g (14,000 rpm) for 15 min at 4° C. and supernatants were used to determine protein concentration using Bradford assay (Pierce™ Coomassie (Bradford) Protein Assay Kit, Thermo Scientific™ Cat #23200) and for Western blot analysis.
(§7) Western blot analysis: Cell lysates were mixed with 4× SDS-PAGE sample buffer [50 mM Tris-HCl, pH 6.8, 2% (w/v) SDS, 10% (v/v) glycerol, 0.02% (w/v) Bromophenol Blue and 1% (v/v) 2-mercaptoethanol] to a final total protein concentration of 1 μg/μl and heated at 95° C. for 5 minutes. Twenty micrograms of samples were loaded onto NuPAGE™ 4-12% Bis-Tris gradient gels (Life Technologies) along with 3 μl of BIO-RAD protein marker (Precision Plus Protein™ All Blue Prestained Protein Standards #1610373 kDa), gels were run in duplicates at 110V for 2 hours and 30 minutes with the NuPAGE™ MOPS SDS running buffer (Life Technologies, Cat #NP0001-02). After electrophoresis, the separated proteins were transferred onto the nitrocellulose membrane (GE Healthcare, Amersham Protran 0.45 μm NC) at 90 V for 90 minutes. Transferred membranes were briefly stained with Ponceau S stain and divided into 3 strips, as described earlier in Fan et al., Biochem. J. 475:23-44 (2018). Briefly, upper strip was cut from the top of the membrane to 75 kDa, middle strip cut was between 75 kDa—30 kDa and bottom strip cut was from 30 kDa—to the bottom of the membrane. Membrane strips were blocked at room temperature with 5% (w/v) dried skimmed milk dissolved in TBS-T [20 mM Tris-HCl, pH 7.5, 150 mM NaCl and 0.1% (v/v) Tween® 20] for 1 hour, washed four times with ten minutes intervals in TBS-T and incubated with primary antibodies diluted in 5% BSA (bovine serum albumin) in TBS-T overnight at 4° C. […]

[2] = system: LRRK2; assay: Cellular degradation of LRRK2, Western blot in MEFs; format: cell-based, Mouse; details: for degradation of LRRK2 (total level): Western blot, time course, 0 nM-1000 nM; for level of LRRK2 (degradation): after 48 hours (FIG. 18)
Procedure: as §1, §2, §3, §4, §5, §6, §7

[3] = system: Rab10 (phospho T73); assay: Inhibition of phosphorylation of Rab10, Western blot in MEFs; format: cell-based, Mouse; details: for inhibition of phosphorylation of Rab10: Western blot, time course, 0 nM-1000 nM
Procedure: as §1, §2, §3, §4, §5, §6, §7

[4] = target: T1, LRRK2 wt (Homo sapiens, UniProt Q5S007); assay: IC50 experiments, Invitrogen Adapta assay, LRRK2 wt; format: biochemical
T1 construct: purchased Invitrogen
Procedure: (§8) IC50 experiments were performed using Invitrogen™'s Adapta™ assay.

[5] = target: T2, LRRK2 R1441C homozygous knock-in MEFs (Mus musculus, UniProt Q5S006, R1441C); assay: Cellular degradation of LRRK2 in R1441C homozygous cells, Western blot; format: cell-based; details: R1441C homozygous cells (FIG. 3B), time course, 0 nM-1000 nM
T2 construct: endogenous in cells; host or cells: LRRK2 R1441C homozygous knock-in MEFs
Procedure: as §1, §2, §3, §4
Treatment: WT MEF, R1441C, VPS35N and G2019S mutants' cells were plated at equal density into 6-well plates in a final volume of 3 mL of complete growth medium/well. Degraders were reconstituted in DMSO and used at 1:1000 in cells i.e. 3 μl/3 ml. […]

[6] = target: T3, LRRK2 G2019S (Homo sapiens, UniProt Q5S007, G2019S); assay: IC50 experiments, Invitrogen Adapta assay, LRRK2 G2019S; format: biochemical
T3 construct: purchased Invitrogen
Procedure: as §8

T3 sequence (Q5S007 whole entry G2019S): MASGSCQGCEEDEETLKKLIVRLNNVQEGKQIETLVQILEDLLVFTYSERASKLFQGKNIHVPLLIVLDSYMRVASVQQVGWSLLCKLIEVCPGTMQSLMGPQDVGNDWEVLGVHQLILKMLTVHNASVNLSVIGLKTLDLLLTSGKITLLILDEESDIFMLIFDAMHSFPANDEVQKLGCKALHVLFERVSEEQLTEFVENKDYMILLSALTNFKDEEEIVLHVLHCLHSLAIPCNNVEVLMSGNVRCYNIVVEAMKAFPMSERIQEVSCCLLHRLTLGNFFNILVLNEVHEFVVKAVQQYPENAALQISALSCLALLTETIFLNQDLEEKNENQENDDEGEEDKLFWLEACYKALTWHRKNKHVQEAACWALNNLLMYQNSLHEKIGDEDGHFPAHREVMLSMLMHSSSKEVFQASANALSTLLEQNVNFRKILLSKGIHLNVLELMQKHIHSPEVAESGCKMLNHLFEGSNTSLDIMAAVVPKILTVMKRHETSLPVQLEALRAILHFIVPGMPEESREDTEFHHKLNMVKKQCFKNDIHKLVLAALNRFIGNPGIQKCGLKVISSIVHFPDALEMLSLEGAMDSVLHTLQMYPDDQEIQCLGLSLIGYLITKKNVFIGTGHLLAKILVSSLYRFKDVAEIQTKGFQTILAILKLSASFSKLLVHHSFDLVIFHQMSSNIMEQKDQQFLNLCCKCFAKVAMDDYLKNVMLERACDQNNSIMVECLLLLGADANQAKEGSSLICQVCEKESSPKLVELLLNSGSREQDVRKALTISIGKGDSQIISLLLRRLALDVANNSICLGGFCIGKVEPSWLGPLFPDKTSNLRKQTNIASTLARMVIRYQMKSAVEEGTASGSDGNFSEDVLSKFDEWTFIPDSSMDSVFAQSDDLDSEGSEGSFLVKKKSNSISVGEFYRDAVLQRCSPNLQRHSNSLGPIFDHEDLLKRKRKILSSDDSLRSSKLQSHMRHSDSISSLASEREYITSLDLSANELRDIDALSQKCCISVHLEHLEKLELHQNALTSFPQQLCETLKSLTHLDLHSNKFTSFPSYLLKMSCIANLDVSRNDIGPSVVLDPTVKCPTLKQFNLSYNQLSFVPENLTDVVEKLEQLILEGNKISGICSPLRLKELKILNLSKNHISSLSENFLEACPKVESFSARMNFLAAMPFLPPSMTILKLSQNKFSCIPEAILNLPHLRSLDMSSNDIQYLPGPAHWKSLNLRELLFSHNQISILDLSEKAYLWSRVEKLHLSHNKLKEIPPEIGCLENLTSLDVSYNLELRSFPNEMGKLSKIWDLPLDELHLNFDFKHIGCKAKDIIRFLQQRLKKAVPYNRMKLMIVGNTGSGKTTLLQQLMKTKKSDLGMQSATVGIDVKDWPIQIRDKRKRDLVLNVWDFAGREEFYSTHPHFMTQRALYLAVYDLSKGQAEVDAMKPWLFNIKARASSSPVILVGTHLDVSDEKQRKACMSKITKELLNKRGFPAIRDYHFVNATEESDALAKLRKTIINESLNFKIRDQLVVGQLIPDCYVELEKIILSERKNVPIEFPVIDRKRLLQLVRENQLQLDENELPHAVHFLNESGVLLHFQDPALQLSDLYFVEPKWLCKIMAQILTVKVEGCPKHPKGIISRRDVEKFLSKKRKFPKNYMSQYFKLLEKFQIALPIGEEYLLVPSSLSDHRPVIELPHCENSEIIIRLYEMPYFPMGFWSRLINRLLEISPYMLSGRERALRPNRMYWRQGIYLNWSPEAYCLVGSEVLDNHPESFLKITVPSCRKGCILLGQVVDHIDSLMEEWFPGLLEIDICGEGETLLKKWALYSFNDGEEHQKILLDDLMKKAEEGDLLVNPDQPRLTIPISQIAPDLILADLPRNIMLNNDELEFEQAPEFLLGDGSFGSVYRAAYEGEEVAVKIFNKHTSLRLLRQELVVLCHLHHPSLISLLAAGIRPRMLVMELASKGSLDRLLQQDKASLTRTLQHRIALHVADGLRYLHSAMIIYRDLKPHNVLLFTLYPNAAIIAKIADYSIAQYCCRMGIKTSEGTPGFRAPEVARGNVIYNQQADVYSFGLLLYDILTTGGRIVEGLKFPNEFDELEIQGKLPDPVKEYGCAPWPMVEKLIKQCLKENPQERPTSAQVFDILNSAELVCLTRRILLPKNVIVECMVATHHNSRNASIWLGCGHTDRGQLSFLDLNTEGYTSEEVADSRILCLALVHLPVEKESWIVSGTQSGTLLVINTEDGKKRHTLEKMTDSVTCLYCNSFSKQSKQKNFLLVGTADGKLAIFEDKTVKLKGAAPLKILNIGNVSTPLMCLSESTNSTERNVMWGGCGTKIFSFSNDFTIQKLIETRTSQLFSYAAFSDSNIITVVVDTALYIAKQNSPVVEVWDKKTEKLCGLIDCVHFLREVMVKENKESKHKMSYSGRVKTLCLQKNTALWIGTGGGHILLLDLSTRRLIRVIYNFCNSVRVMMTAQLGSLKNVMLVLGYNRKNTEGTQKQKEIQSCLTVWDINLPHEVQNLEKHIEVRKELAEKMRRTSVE
T1 sequence (Q5S007 whole entry): as the sequence (Q5S007 whole entry G2019S) above, with S2019G counted along it
T2 sequence (Q5S006 whole entry R1441C): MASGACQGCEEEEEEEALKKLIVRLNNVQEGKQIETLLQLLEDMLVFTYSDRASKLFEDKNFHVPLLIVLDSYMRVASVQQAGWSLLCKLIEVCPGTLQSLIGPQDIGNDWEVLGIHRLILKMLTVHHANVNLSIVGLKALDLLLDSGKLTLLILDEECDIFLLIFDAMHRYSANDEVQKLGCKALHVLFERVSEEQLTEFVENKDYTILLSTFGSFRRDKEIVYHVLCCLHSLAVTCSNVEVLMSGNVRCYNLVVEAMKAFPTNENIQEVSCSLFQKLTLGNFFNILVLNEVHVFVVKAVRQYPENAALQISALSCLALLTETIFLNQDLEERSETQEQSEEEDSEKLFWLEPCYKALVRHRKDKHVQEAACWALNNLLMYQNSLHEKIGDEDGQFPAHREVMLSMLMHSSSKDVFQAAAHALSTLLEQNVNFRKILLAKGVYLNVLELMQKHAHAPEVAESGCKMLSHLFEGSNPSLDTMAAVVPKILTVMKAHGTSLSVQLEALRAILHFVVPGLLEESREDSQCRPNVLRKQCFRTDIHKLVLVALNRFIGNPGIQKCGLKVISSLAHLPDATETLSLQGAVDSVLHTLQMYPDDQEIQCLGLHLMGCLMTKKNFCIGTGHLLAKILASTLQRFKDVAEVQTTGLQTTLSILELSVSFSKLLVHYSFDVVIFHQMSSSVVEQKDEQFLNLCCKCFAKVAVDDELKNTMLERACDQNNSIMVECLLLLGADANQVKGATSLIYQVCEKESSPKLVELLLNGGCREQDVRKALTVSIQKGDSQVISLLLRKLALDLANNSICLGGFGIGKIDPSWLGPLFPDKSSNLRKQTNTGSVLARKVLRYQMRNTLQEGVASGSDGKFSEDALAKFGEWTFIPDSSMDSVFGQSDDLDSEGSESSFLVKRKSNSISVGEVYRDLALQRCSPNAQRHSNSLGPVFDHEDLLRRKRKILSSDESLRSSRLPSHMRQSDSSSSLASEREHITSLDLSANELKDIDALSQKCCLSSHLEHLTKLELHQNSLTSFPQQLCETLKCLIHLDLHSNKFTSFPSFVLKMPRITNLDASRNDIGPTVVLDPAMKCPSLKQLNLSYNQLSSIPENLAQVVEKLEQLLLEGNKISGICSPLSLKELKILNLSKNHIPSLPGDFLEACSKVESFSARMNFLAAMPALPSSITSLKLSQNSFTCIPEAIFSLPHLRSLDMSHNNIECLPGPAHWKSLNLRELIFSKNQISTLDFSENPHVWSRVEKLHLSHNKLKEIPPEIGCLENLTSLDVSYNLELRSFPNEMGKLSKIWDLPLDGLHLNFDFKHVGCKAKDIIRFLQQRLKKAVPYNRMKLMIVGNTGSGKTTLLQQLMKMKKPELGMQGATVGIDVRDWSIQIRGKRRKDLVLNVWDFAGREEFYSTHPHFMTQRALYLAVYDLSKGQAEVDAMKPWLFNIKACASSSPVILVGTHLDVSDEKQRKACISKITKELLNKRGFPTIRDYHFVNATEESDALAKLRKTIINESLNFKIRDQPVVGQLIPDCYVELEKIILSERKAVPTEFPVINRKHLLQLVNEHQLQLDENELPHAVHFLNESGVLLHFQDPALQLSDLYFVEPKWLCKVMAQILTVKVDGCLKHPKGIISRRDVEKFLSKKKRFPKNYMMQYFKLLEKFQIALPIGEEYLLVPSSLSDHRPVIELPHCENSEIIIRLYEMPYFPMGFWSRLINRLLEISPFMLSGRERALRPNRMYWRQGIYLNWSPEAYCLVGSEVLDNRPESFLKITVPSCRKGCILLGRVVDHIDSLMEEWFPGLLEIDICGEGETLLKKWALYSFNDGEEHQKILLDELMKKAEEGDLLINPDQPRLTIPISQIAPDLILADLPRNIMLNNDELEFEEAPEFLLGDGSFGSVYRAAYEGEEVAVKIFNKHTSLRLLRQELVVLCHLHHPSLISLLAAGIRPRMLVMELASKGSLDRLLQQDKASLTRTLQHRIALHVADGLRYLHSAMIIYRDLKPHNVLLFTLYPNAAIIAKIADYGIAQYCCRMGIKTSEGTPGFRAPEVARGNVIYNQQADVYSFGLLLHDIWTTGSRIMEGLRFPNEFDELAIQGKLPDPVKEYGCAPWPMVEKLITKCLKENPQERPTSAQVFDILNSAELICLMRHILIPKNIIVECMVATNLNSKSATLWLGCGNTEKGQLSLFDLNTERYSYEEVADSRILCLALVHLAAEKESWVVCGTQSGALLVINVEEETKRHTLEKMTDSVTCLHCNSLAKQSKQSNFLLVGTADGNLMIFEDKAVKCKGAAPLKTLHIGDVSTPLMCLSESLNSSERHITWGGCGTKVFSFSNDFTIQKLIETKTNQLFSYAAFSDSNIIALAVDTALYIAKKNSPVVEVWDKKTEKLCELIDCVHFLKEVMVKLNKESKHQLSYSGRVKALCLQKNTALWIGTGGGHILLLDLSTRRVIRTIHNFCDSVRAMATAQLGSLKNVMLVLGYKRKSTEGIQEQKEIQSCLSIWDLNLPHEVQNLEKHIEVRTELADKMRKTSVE

IC50 [4] | degradation of LRRK2 (C-terminus) [5] | IC50 [6] | Structure (SMILES) | inhibition of phosphorylation of S935 [1] | degradation of LRRK2 (total level) [2] | inhibition of phosphorylation of Rab10 [3] | inhibition of pRAB10 ([3]; after 48 hours (FIG. 18)) | inhibition of pS935 ([1]; after 48 hours (FIG. 18)) | level of LRRK2 (degradation) [2]
– | – | – | CN1CCN(c2cc(-c3n[nH]c4ccc(OC5(C)CC5)cc34)ncn2)CC1 [MLi-2 analog, 5-(1-methylcyclopropyl)oxy-3-[6-(4-methylpiperazin-1-yl)pyrimidin-4-yl]-1H-indazole, reference compound] | inhibits | did not decrease | – | – | – | –
2 nM | observed | 1 nM | CNc1nc(Nc2ccc(C(=O)N3CCN(C(=O)CCCCCCCCOc4cccc5c4C(=O)N(C4CCC(=O)NC4=O)C5=O)CC3)cc2OC)ncc1C(F)(F)F (stereo not shown) [Compound 3, 2-(2,6-dioxopiperidin-3-yl)-4-((9-(4-(3-methoxy-4-((4-(methylamino)-5-(trifluoromethyl)pyrimidin-2-yl)amino)benzoyl)piperazin-1-yl)-9-oxononyl)oxy)isoindoline-1,3-dione] | inhibited | did not degrade | inhibited | – | – | –
2.5 nM | – | 1.47 nM | CC1(Oc2ccc3[nH]nc(-c4cc(N5CCN(C(=O)CCOCCNc6cccc7c6C(=O)N(C6CCC(=O)NC6=O)C7)CC5)ncn4)c3c2)CC1 (stereo not shown) [Compound 11, 3-(7-((2-(3-(4-(6-(5-(1-methylcyclopropoxy)-1H-indazol-3-yl)pyrimidin-4-yl)piperazin-1-yl)-3-oxopropoxy)ethyl)amino)-1-oxoisoindolin-2-yl)piperidine-2,6-dione] | inhibits | Some degradation | – | – | – | –
2 nM | – | 1 nM | CNc1nc(Nc2ccc(C(=O)N3CCN(C(=O)CCOCCOCCNc4cccc5c4C(=O)N(C4CCC(=O)NC4=O)C5=O)CC3)cc2OC)ncc1C(F)(F)F (stereo not shown) [Compound 2] | inhibited | did not degrade | inhibited | – | – | –
– | – | – | Cc1ncsc1-c1ccc([C@@H](C)NC(=O)[C@H]2C[C@H](O)CN2C(=O)[C@H](NC(=O)CCOCCOCCOCCC(=O)N2CCN(c3cc(-c4n[nH]c5ccc(OC6(C)CC6)cc45)ncn3)CC2)C(C)(C)C)cc1 [Compound 14, (2R,4S)-1-((R)-2-(tert-butyl)-16-(4-(6-(5-(1-methylcyclopropoxy)-1H-indazol-3-yl)pyrimidin-4-yl)piperazin-1-yl)-4,16-dioxo-7,10,13-trioxa-3-azahexadecanoyl)-4-hydroxy-N—((R)-1-(4-(4-methylthiazol-5-yl)phenyl)ethyl)pyrrolidine-2-carboxamide] | inhibited | No degradation | inhibited | – | – | –
– | – | – | Cc1ncsc1-c1ccc([C@H](C)NC(=O)[C@@H]2C[C@@H](O)CN2C(=O)[C@@H](NC(=O)CCOCCOCCOCCOCCC(=O)N2CCN(c3cc(-c4n[nH]c5ccc(OC6(C)CC6)cc45)ncn3)CC2)C(C)(C)C)cc1 [Compound 15] | inhibited | No degradation | inhibited | – | – | –
3.14 nM | – | 3.16 nM | CC1(Oc2ccc3[nH]nc(-c4cc(N5CCN(C(=O)CCOCCOCCOCCOCCNc6cccc7c6C(=O)N(C6CCC(=O)NC6=O)C7)CC5)ncn4)c3c2)CC1 (stereo not shown) [Compound 13] | inhibited | Some degradation | – | – | – | –
1.59 nM | – | 1.08 nM | CC1(Oc2ccc3[nH]nc(-c4cc(N5CCN(C(=O)CCOCCNc6cccc7c6C(=O)N(C6CCC(=O)NC6=O)C7=O)CC5)ncn4)c3c2)CC1 (stereo not shown) [Compound 10, 2-(2,6-dioxopiperidin-3-yl)-4-((2-(3-(4-(6-(5-(1-methylcyclopropoxy)-1H-indazol-3-yl)pyrimidin-4-yl)piperazin-1-yl)-3-oxopropoxy)ethyl)amino)isoindoline-1,3-dione] | inhibited | Less degradation | – | – | – | –
– | – | – | CC1(Oc2ccc3[nH]nc(-c4cc(N5CCN(C(=O)CCOCCOCCNc6cccc7c6C(=O)N(C6CCCNC6=O)C7=O)CC5)ncn4)c3c2)CC1 (stereo not shown) [Compound 16] | – | – | – | potently inhibited | potently inhibited | did not reduce
1.24 nM | – | 1.13 nM | CC1(Oc2ccc3[nH]nc(-c4cc(N5CCN(C(=O)CCOCCOCCNc6cccc7c6C(=O)N(C6CCC(=O)NC6=O)C7=O)CC5)ncn4)c3c2)CC1 (stereo not shown) [Compound 8, 2-(2,6-dioxopiperidin-3-yl)-4-((2-(2-(3-(4-(6-(5-(1-methylcyclopropoxy)-1H-indazol-3-yl)pyrimidin-4-yl)piperazin-1-yl)-3-oxopropoxy)ethoxy)ethyl)amino)isoindoline-1,3-dione] | inhibited | decreased | – | – | – | degraded
– | – | – | CNc1nc(Nc2ccc(C(=O)N3CCN(CCOCCOCCOCCNc4cccc5c4C(=O)N(C4CCC(=O)NC4=O)C5=O)CC3)cc2OC)ncc1C(F)(F)F (stereo not shown) [Compound 5] | inhibited | did not degrade | inhibited | – | – | –
4 nM | – | 2 nM | CNc1nc(Nc2ccc(C(=O)N3CCN(C(=O)CCOCCOCCOCCOCCNc4cccc5c4C(=O)N(C4CCC(=O)NC4=O)C5=O)CC3)cc2OC)ncc1C(F)(F)F (stereo not shown) [Compound 1] | inhibited | did not degrade | inhibited | – | – | –
2.58 nM | – | 2.24 nM | CC1(Oc2ccc3[nH]nc(-c4cc(N5CCN(C(=O)CCOCCOCCNc6cccc7c6C(=O)N(C6CCC(=O)NC6=O)C7)CC5)ncn4)c3c2)CC1 (stereo not shown) [Compound 12, 3-(7-((2-(2-(3-(4-(6-(5-(1-methylcyclopropoxy)-1H-indazol-3-yl)pyrimidin-4-yl)piperazin-1-yl)-3-oxopropoxy)ethoxy)ethyl)amino)-1-oxoisoindolin-2-yl)piperidine-2,6-dione] | inhibited | Minor degradation | – | – | – | –
1.46 nM | – | 0.98 nM | CC1(Oc2ccc3[nH]nc(-c4cc(N5CCN(C(=O)CCOCCOCCOCCOCCNc6cccc7c6C(=O)N(C6CCC(=O)NC6=O)C7=O)CC5)ncn4)c3c2)CC1 (stereo not shown) [Compound 9] | inhibited | decreased | – | – | – | –
